How the values were obtained:
Type in all cases: cell-based, human
[1] = test system: p-c-Jun, p-ERK, p-Bad, Bax/Bcl-2 in SH-SY5Y cells; test: Western blotting of anti-apoptotic signaling in MG-stressed cells; settings: 0.6 mM MG 16 h vs control cells
Description: (§1) Figure 7 PrRP31 and palm^11-PrRP31 affected anti-apoptotic signaling in SH-SY5Y cells. Immunoblots: (a) and their quantifications: (b). SH-SY5Y cells were pretreated with PrRP31 and palm^11-PrRP31 at a concentration of 1 × 10^−5 M for 4 h and then stressed with 0.6 mM MG for 16 h. Activation was expressed as the ratio of the activated protein to the total amount of the protein, both normalized to loading control, GAPDH. Data are presented as the means ± SEM as a percentage of control cells treated with medium alone. Analysis is made vs. MG by a Student’s t-test, * p < 0.5, ** p < 0.01 (each sample in triplicates).
(§2) For the investigation of the molecular mechanism of PrRP31 and its analog in the cells, signaling pathways were studied by Western blotting (WB). The cells were cultured in 6-well plates at a density of 800,000 cells per well. Growth medium was exchanged for serum-free DMEM 16 h before an experiment, and then, the cells were incubated with PrRP31, palm^11-PrRP31, or scrambled peptide at a final concentration of 1 × 10^−5 M or insulin at a concentration of 1 × 10^−7 M at 37 °C for 8 min. The cells were rapidly cooled on ice and lysed in 400 µl of Laemmli sample buffer (62.5 mM Tris-HCl with pH 6.8, 2% SDS, 10% glycerol, 0.01% bromophenol blue, 5% mercaptoethanol, 50 mM NaF, and 1 mM Na3VO4) and stored at −20 °C. Afterward, the cell lysates were analyzed by WB. SDS-electrophoresis and WB were carried out using a Criterion system with a 26-well 4−15% Criterion^TM TGX^TM Precast Midi Protein Gel (Bio-Rad, Hercules, CA, USA) at a constant voltage of 200 V or 100 V, respectively.
(§3) Subsequently, the membranes were incubated overnight with primary antibody (Ab) at 4 °C, according to the manufacturer´s instructions (Table 2). The next day, the membranes were incubated with an HRP-linked secondary antibody for 1 h at room temperature. Chemiluminescence was visualized with a ChemiDoc^TM System (Bio-Rad). Band intensities were normalized using glyceraldehyde 3-phosphate dehydrogenase (GAPDH) as an internal loading control.
(§4) For analysis of the molecular mechanism during MG stress, the growth medium was exchanged for serum-free DMEM 16 h before the experiment. The cells were pretreated with 1 × 10^−5 M PrRP31 or palm^11-PrRP31 for 4 h; then, MG was added to a final concentration of 0.6 mM, and the cells were incubated at 37 °C for 16 h. The controls and compounds were tested in triplicate.

[2] = test system: Tau protein phosphorylation in SH-SY5Y cells; test: Western blotting of Tau phosphorylation in MG-stressed cells; settings: 0.6 mM MG 16 h vs control cells
Description: as §1, with “8” for “7”, “attenuate Tau hyperphosphorylation at the epitope Ser396” for “affected anti-apoptotic signaling”, “SH-SY5Y. Immunoblots with:” for “SH-SY5Y cells. Immunoblots:”, “sample replicate” for “sample”, “triplicate).” for “triplicates).”
as §2, §3, §4

[3] = test system: p-m-Tor, p-GSK-3β, p-ERK, p-CREB in SH-SY5Y cells; test: Western blotting with selective inhibitors of signaling pathways
Description: Immunoblots with PrRP31 and palm^11-PrRP31: (a) and insulin: (b) and their quantifications: (c). SH-SY5Y cells were incubated firstly with selective inhibitors for 2 min and then either with PrRP31 and its palmitoylated analog at a final concentration 1 × 10^−5 M, or with insulin in the final concentration 1 × 10^−7 M at 37 °C for 8 min, or alone in serum-free medium. Activated protein was normalized to loading control, GAPDH. Data are presented as the means ± SEM as a percentage of control cells treated with medium alone. Analysis is made between groups as shown in the graph by a Student’s t-test, * p < 0.5, ** p < 0.01, *** p < 0.001(each sample in triplicates).
(§5) Eight minutes of incubation was performed in a series of experiments with different exposure times (5, 10, 15, 30, and 60 min) to PrRP31 and its palmitoylated analog. Activation of analogs was strongest after 10 min. Then, the cells were treated with inhibitors of signaling pathways for 2 min, and analogs were added for 8 min. The time of exposure was set to 8 min to ensure that the incubation time for PrRP31 and its palmitoylated analog was the same. The controls and compounds were tested in triplicate in three independent experiments. The PI3K/Akt pathway is one of the main signaling pathways of insulin; therefore, insulin was used as a positive control. Scrambled peptide was used as a negative control. Activation is expressed as the ratio of the activated protein to the total amount of the protein. GAPDH was used as a loading control.
For further research, inhibitors of signaling pathways were used. The growth medium was exchanged for serum-free DMEM 16 h before the experiment. On the day of the experiment, cells were incubated for 2 min with rapamycin, SB216736 or U0126 at a final concentration of 1 × 10^−6 M; then, PrRP31, palm^11-PrRP31 or scrambled peptide at a final concentration of 1 × 10^−5 M or insulin at a concentration of 1 × 10^−7 M was added for 8 min. The plates were stored at 37 °C. The controls and compounds were tested in triplicate.

[4] = test system: PI3K/Akt signaling pathway in SH-SY5Y cells; test: Western blotting of PI3K/Akt signaling pathway after 8 min incubation; settings: 37 °C
Description: Figure 1 Prolactin-releasing peptide 31 (PrRP31) and palm^11-PrRP31 increased phosphoinositide-3 kinase (PI3K/Akt) signaling pathway in SH-SY5Y cells. Immunoblots: (a) and their quantifications: (b). SH-SY5Y cells were incubated either with PrRP31 and its palmitoylated analog and scrambled at a final concentration 1 × 10^-5 M, or with insulin at the final concentration 1 × 10^−7 M at 37 °C for 8 min, or medium alone (control). Activation was expressed as the ratio of the activated protein to the total amount of the protein, both normalized to loading control, glyceraldehyde 3-phosphate dehydrogenase (GAPDH). Data are presented as the means ± SEM as a percentage of control cells analyzed by one-way ANOVA followed by the Dunnett post hoc test, * p < 0.5, ** p < 0.01, **** p < 0.0001 (n = 3, each sample in triplicates).
as §2, §3, §5

[5] = inhibitor 1 × 10^−6 M for 2 min, then peptide for 8 min, under the control level
[6] = PrRP31 and palm^11-PrRP31 1 × 10^−5 M, insulin 1 × 10^−7 M, 37 °C, 8 min

CC(=O)C=O [MG, methylglyoxal, reference compound]
level of p-Bad (Ser112)/Bad after MG [1]: increased
level of p-Bad (Ser136)/Bad after MG [1]: increased
level of p-c-Jun (Ser73)/c-Jun after MG [1]: increased
Tau phosphorylation at Ser198/199/202 (Tau 1)/Tau 5 after MG [2]: tended to increase
Tau phosphorylation at Ser396 after MG [2]: increased

Cn1cc(C2=C(c3ccc(Cl)cc3Cl)C(=O)NC2=O)c2ccccc21 [SB216736]
effect on the level of p-GSK-3β (Ser9) in cells treated with insulin ([3]; inhibitor 1 × 10^−6 M for 2 min, then insulin 1 × 10^−7 M for 8 min): tended to decrease
effect on the palm^11-PrRP31-induced increase of p-GSK-3β (Ser9) ([3]; inhibitor 1 × 10^−6 M for 2 min, then palm^11-PrRP31 1 × 10^−5 M for 8 min): significantly reversed

N#CC(=C(/N)Sc1ccccc1N)/C(C#N)=C(/N)Sc1ccccc1N [U0126]
effect on the increase of p-ERK and p-CREB by PrRP31, palm^11-PrRP31 and insulin [3, 5]: significantly blocked

CO[C@H]1C[C@@H]2CC[C@@H](C)[C@@](O)(O2)C(=O)C(=O)N2CCCC[C@H]2C(=O)O[C@H]([C@H](C)C[C@@H]2CC[C@@H](O)[C@H](OC)C2)CC(=O)[C@H](C)/C=C(\C)[C@@H](O)[C@@H](OC)C(=O)[C@H](C)C[C@H](C)/C=C/C=C/C=C/1C [rapamycin, Rapamycin]
effect on the increase of p-m-Tor (Ser2448) by PrRP31, palm^11-PrRP31 and insulin [3, 5]: inhibited

GHFTHSIRMI K^11 (γ-E (N-palm))TPRNASVYARPCitDWWGICitPES [scrambled-palm^11-PrRP31]
effect on the PI3K/Akt pathway ([4]; negative control, 1 × 10^-5 M): did not significantly affect

insulin: human insulin used as a positive control
activation of proteins of the insulin signaling cascade ([4]; positive control, 1 × 10^−7 M): significantly activated
p-CREB after incubation with peptide, no inhibitor [3, 6]: increased
p-ERK after incubation with peptide, no inhibitor [3, 6]: increased
p-m-Tor (Ser2448) after application of peptide, no inhibitor ([3]; PrRP31 and palm^11-PrRP31 1 × 10^−5 M, insulin 1 × 10^−7 M, 37 °C, 8 min, normalized to GAPDH, triplicates): significantly increased
p-GSK-3β (Ser9) after incubation with peptide, no inhibitor ([3]; palm^11-PrRP31 1 × 10^−5 M, insulin 1 × 10^−7 M, 37 °C, 8 min, normalized to GAPDH, triplicates): slight increase

Source: PMC7503370, “Cellular Signaling and Anti-Apoptotic Effects of Prolactin-Releasing Peptide and Its Analog on SH-SY5Y Cells” (International Journal of Molecular Sciences, 2020)
